Assay results from patent US10409869B2, “(R)- and (S)-1-(3-(3-N,N-dimethylaminocarbonyl)phenoxyl-4-nitrophenyl)-1-ethyl-N,N'-bis (ethylene)phosphoramidate, compositions and methods for their use and preparation” (OBI Pharma, Inc., priority 2015, dated 2019).

Legend:
[1] = system: HepG2-GFP human hepatocellular carcinoma; assay: Orthotopic HepG2-GFP human hepatocellular carcinoma mouse model, tumor burden; type: in vivo, nude mice; settings: at tested dosages
Experimental: Female athymic nude mice (6 weeks of age) were used in this study. The animals were purchased from Beijing HFK Bioscience, Co., Ltd and maintained in a High Efficiency Particulate Air Filter (HEPA) filtered environment with cages, food, and bedding sterilized by irradiation or autoclaving. A total of 32 nude mice were used for the study. HepG2-GFP human hepatocellular carcinoma cells (AntiCancer, Inc., San Diego, Calif.) were incubated with RPMI-1640 (Gibco-BRL, Life Technologies, Inc.), which contained 10% FBS. Cells were grown in a CO2 Water Jacketed Incubator (Forma Scientific) maintaining 37° C. and a 5% CO2/95% air atmosphere. Cell viability was determined by trypan blue exclusion analysis. Five female athymic nude mice were injected subcutaneously with a single dose of 5×10^6 HepG2-GFP cells. Tumors were harvested when their size reached 1 cm^3 and the tumor tissues were then cut into small fragments of 1 mm^3. Forty female nude mice were implanted orthotopically with a single piece of tumor fragment, which was derived from a subcutaneous tumor model of HepG2-GFP human hepatocellular carcinoma. The tumor tissue was orthotopically implanted in the right lobe of the liver in each mouse by SOI (Surgical Orthotopic Implantation). […]
During the period of the study, all of the experimental mice were checked daily for mortality or signs of morbidity. […] The body weights of the mice were measured twice weekly during the study period. […] Comparisons of body weights and tumor burdens in different groups were analyzed using the Student's t-test with an α=0.05 (two-sided). […]
The progressions of orthotopic HepG2-GFP hepatocellular carcinoma in different groups were monitored by real time imaging. […] Typical tumor images at the end of the study in each group and tumor growth curves derived from the signals of tumor fluorescence, which were analyzed using the Power Station software (INDEC Biosystems, CA, USA), are shown in FIG. 6 and FIG. 7, respectively
Tumor IR was calculated based on the final average tumor weights according to the formula: IR (%)=(1−treatment(t)/control(c))×100

AL7473 cells = assay: T-cell leukemia animal model, human CD45 FACS; type: in vivo, mouse
Experimental: Leukemic cells were prepared by thawing out ˜150×10^6 of AL7473 cells from LN2 (about 2-3 vials) and placing them into a 37° C. water bath rapidly. All of the cells were transferred into a 50 ml falcon tube with 40 ml pre-warmed complete medium. The cells were centrifuged at 1200 rpm for 5 min. The cells were re-suspended with 40 ml RPMI1640. The cells were then counted. The cells were centrifuged at 1200 rpm for 5 min. and re-suspended with ice cold PBS to 2 million cell per 100 ul PBS. 100 ul of saline containing 2×10^6 cells prepared above were used to inject into each mouse by IV. The FACS analysis was done for blood weekly during the experimental period by transferring samples into FACS tubes, adding human CD45 FITC and isotypes into corresponding tubes for all the samples and incubating the cells on ice for 30 min. in the dark. 2 ml of red blood cell lysing buffer was added to each tube and incubated on ice for another 30 min. in the dark. […] Samples were analyzed on a BD Calibur by using Cell Quest or Flowjo and the results were analyzed by using Prism 5.0. […]
Peripheral blood was collected weekly for human CD45 antibody FACS detected during treatment since the treatment start on Day 43 post cell inoculation. […] Blood, spleen and bone marrow of all mice were collected for human CD45 FACS detected. […]

## C[C@H](OP(=O)(N1CC1)N1CC1)c1ccc([N+](=O)[O-])c(Oc2cccc(C(=O)N(C)C)c2)c1 (single isomer, unassigned) [TH3424]
[1]
  inhibitory effect on orthotopic HepG2-GFP model: very strong inhibitory effect
AL7473 cells; after the second dosing, treatment groups 2-4 vs vehicle group 1, P<0.001
  percentages of human CD45+ leukemia cells in peripheral blood: significantly lower than vehicle group
AL7473 cells; groups 2-4 vs group1, P<0.01, bone marrow in group2 P<0.05
  tumor burden (human CD45) in blood, spleen and bone marrow at termination: significant differences
